Source: the METLIN SMRT retention time set (Domingo-Almenara et al. 2019)

Assay: gradient 5% acetonitrile 3 min, to 50% in 2 min, to 85% in 15 min, held 3 min, 100 µL/min
Conditions: column: Zorbax Extend-C18 2.1 x 50 mm; eluents: water / acetonitrile, 0.1% formic acid
Method in brief: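 Mixtures of ~100 pure standards were chromatographed on a Zorbax Extend-C18 column (2.1 × 50 mm, 1.8 μm) at 100 μL/min using water and acetonitrile, each with 0.1% formic acid. Detection used a quadrupole time-of-flight mass spectrometer in positive and negative ionization mode, and data collection spanned 3 months. Retention time was obtained from adduct peaks picked computationally and each checked manually.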

Row | SMILES | RP-LC retention time
1 | O=C(CCn1ccc2cc(S(=O)(=O)N3CCCCC3)ccc21)N1CCN(c2ccccn2)CC1 | 680 s
2 | CCC(=O)N1CCc2cc(C(=O)N3CCCCCC3)ccc21 | 770 s
3 | Cc1ccc(CNS(=O)(=O)c2ccc3c(c2)C(=O)N(C)c2ncccc2O3)cc1 | 932 s
4 | O=C(c1nnc(-c2ccc(S(=O)(=O)N3CCCC3)cc2)o1)N1CCc2ccccc2C1 | 980 s
5 | Cc1ccc(Cl)cc1N1CCN(C(=O)C2CCN(S(=O)(=O)c3cn(C)cn3)CC2)CC1 | 859 s
6 | COc1ccc(NC(=O)C2CN(S(=O)(=O)c3cccnc3)CC23CCCCC3)cc1 (stereo not drawn) | 890 s
7 | Cc1ccccc1NC(=O)C1CC(=O)N(c2n[nH]c3cccc(F)c23)C1 (stereo not drawn) | 733 s
8 | O=c1c2nc(-c3cccc(Cl)c3)cn2ccn1-c1ccc(F)cc1 | 864 s
9 | CN(C)c1ncncc1N1CCC(C(=O)N2CCN(c3cccc(Cl)c3)CC2)CC1 | 722 s
10 | COCCn1cc(CCNC(=O)Nc2cc(Cl)cc(Cl)c2)c2cccnc21 | 893 s
11 | CCOc1ccccc1-c1nc(Cc2noc(-c3ccncc3)n2)c(C)o1 | 918 s
12 | CC(C)(C)C(=O)NCCN1C(=O)C2(CCCCC2)C1c1ccccc1 (stereo not drawn) | 903 s
13 | Cc1cc(C)cc(C(=O)NCc2nn(C)c3ccccc23)c1 | 854 s
14 | Cc1nnc(N2CCCC(C(=O)NCc3cccc(Cl)c3)C2)c2nn(-c3ccccc3)c(C)c12 (stereo not drawn) | 674 s
15 | O=c1c2nnc3ccnn3c2ccn1CCc1c[nH]c2ccc(F)cc12 | 709 s
16 | Cc1ccc(NC(=O)C(C)C2CCN(C(=O)Nc3ccc(Cl)cc3)CC2)cc1 (stereo not drawn) | 963 s
17 | CCCCC(=O)Nc1cnc(N2CCNCC2)c(C(=O)N2CCCCC2C)c1 (stereo not drawn) | 619 s
18 | COc1ccccc1C(=O)Nc1cccn2ncnc12 | 803 s
19 | Cc1ccc(NC(=O)N2CCc3nc[nH]c3C2)cc1F | 606 s
20 | CC(C)NC(=O)c1nnn(-c2ccccc2)c1-c1cccnc1 | 713 s
21 | CN(C)C(=O)c1cc(=O)[nH]c2c(Cl)cccc12 | 604 s

Row | SMILES | RP-LC retention time
22 | Cc1cc(N2CCC(NC(=O)Nc3cccc(Cl)c3F)C2=O)ccc1F (stereo not drawn) | 945 s
23 | COc1ccc(NC(=O)N2CCC3(CC2)NC(=O)c2cccc(Cl)c2N3)c(C)c1 | 834 s
24 | COc1cc2c(cc1OC)C1C(C(=O)N3CCN(c4ccccn4)CC3)c3ccccc3C(=O)N1CC2 (stereo not drawn) | 606 s
25 | COc1ccc(CNC(=O)COc2nc(C)nc3ccccc23)cc1 | 678 s
26 | O=S(=O)(c1ccccc1)N1CCC(n2cnnc2-c2ccccc2)CC1 | 749 s
27 | CCOC(=O)c1cnc(N2CCN(c3ccccc3F)CC2)[nH]c1=O | 908 s
28 | CCCc1ccc(S(=O)(=O)N2CCN(c3cnn4c(C5CC5)nnc4c3)CC2)cc1 | 856 s
29 | CCn1cc(-c2nc(CC(=O)NCc3ccc(C)cc3)cs2)c2cccnc21 | 912 s
30 | CCn1cc(C(=O)N2CCCc3ccccc32)c2nn(-c3ccccc3)c(=O)c-2c1 | 788 s
31 | CCNC(=O)N1CC=C(C(=O)Nc2ccc(F)cc2)CC1 | 672 s
32 | CCc1cccc(NC(=O)N2CCC(c3cc(N)on3)CC2)c1 | 751 s
33 | CCN1C(=O)C2CC3(CCN(C(=O)c4ccoc4)CC3)CN2C1=O (stereo not drawn) | 628 s
34 | Cc1nc(-c2ccccc2)sc1C(=O)Nc1nc(-c2ccccc2)c(C)s1 | 1210 s
35 | CCN(CC)CCNC(=O)c1cn(C)nc1S(=O)(=O)N1CCN(c2cccc(Cl)c2)CC1 | 711 s
36 | O=C(c1ccccc1)N1C[C@@H]2C[C@H]1C[C@@H]2NS(=O)(=O)c1cccnc1 | 630 s
37 | COC(=O)c1ccccc1NC(=O)Cn1cccc(-c2nc(-c3ccc(OC)c(OC)c3)no2)c1=O | 871 s
38 | CCc1c(C(=O)O)nnn1Cc1ccccc1 | 701 s
39 | CCS(=O)(=O)c1nc2ccc(NS(=O)(=O)c3c(C)cc(C)cc3C)cc2s1 | 958 s
40 | Cc1ccc(Cl)cc1N1CCN(C(=O)CCN2C(=O)C3C4C=CC(C4)C3C2=O)CC1 (stereo not drawn) | 989 s
41 | COc1cccc(Cn2nnc(C(=O)O)c2-c2cccc(OC)c2)c1 | 782 s
42 | CN1C(=O)C2CCCCN2c2ccc(C(=O)NCCCN3CCOCC3)cc21 (stereo not drawn) | 579 s

Further lines, results first:

Row | RP-LC retention time | SMILES
43 | 760 s | Cc1ccc(NC(=O)Nc2ccc(NC(=O)N3CCCC(C(=O)NC(C)C)C3)cc2)cc1 (stereo not drawn)
44 | 868 s | CCn1cc(S(=O)(=O)Nc2cccc(C)c2C)c2cccnc21
45 | 736 s | Cc1c(Cl)cccc1NC(=O)N1CCC(c2cc(N)on2)CC1
46 | 931 s | CCOc1ccc(-c2cn3ccn(-c4ccc(Br)cc4)c(=O)c3n2)cc1
47 | 1120 s | COC(=O)c1c(-c2cccs2)csc1NC(=O)c1cc(OC)c(OC)c(OC)c1
48 | 732 s | COc1ccc(CNC(=O)c2ccc3c(c2)nc2n3CCN(c3ccccc3)C2=O)cc1
49 | 861 s | CCCN1CCCCc2cc(C(=O)NC)sc21
50 | 879 s | Cc1cnn(Cc2nc(-c3ccc(NC(=O)c4cccs4)cc3)oc2C)c1
51 | 751 s | CC1(C(=O)NCc2ccccc2)Cc2ccccc2C(=O)N1C1CC1 (stereo not drawn)
52 | 917 s | Cc1ccccc1CNC(=O)C1(c2ccc(NS(C)(=O)=O)cc2)CCCCC1
53 | 685 s | CNC(=O)c1csc(NC(=O)c2cc(Cl)ccc2Cl)n1
54 | 879 s | C=C(C)COc1ccc2oc(C)c(C(=O)O)c2c1
55 | 691 s | Cc1ccc(-c2ncccc2CNS(=O)(=O)c2cccc(C#N)c2)cc1
56 | 620 s | CNC(=O)c1cc(N2CCCC2)nc2c(Cl)cccc12
57 | 742 s | CCCNC(=O)C1CCCN(c2nc3ncn(CC(=O)Nc4ccccc4OCC)c(=O)c3s2)C1 (stereo not drawn)
58 | 970 s | CCOc1ccccc1NC(=O)Cn1nnc(C(=O)Nc2cc(Cl)ccc2OC)c1N
59 | 577 s | Cn1c(SCC(=O)N2CCC(C(N)=O)CC2)nnc1-c1sc2ncccc2c1N
60 | 647 s | CCCCn1nnnc1NCc1ccc2c(c1)n(C)c(=O)n2C
61 | 766 s | CC1CCN(C(=O)c2cn(CC3CCCO3)cc3c(=O)n(-c4ccccc4)nc2-3)CC1 (stereo not drawn)
62 | 720 s | Cn1cccc1C(=O)N1CCC(c2noc(-c3ccncc3)n2)C1 (stereo not drawn)
63 | 953 s | NS(=O)(=O)c1cccnc1Nc1ccc(Oc2ccccc2)cc1
64 | 1010 s | COc1ccc(-c2nc3n(c2C(=O)Nc2nc(-c4ccccc4)cs2)CCS3(=O)=O)cc1
65 | 687 s | CC1CCCN(Cc2nc(Cn3ccn4nc(-c5ccc(F)cc5)cc4c3=O)no2)C1 (stereo not drawn)
66 | 615 s | Cc1ccc(CN2CC3(CCCCC3)CC2COc2ccncc2)nc1 (stereo not drawn)
67 | 879 s | CCCCNC(=O)C(=O)NCC1OCCc2ccccc21 (stereo not drawn)
68 | 686 s | Cc1ccnc(NS(=O)(=O)c2ccc(NC(=O)c3ccc(-n4cccn4)nn3)cc2)n1
